Our source for the minimal effective dose values is patent US4460587A, “5-Diazacycloalkyl imidazo[1,2-c][1,3]benzodiazepines” (Ciba-Geigy Corporation, priority 1982, dated 1984).

For assay [1], the system named is learned conditioned avoidance behavior. Description: conditioned avoidance (lever press to avoid electric foot shock) in rats. It is filed as in vivo. Particulars: Rattus norvegicus, oral, read-out: oral dose that disrupts avoidance behavior, e.g. decreases avoidance responses. As to the method: (§1) Each lever press postpones the shock for 30 seconds. Whenever the animal fails to press the lever once within said period, brief (0.5 sec.) shocks are delivered at 15 second intervals until the animal again presses the lever. Under control conditions the animals press the lever at a moderately steady rate and seldom receive more than five or six shocks during a 25-minute (rats) and up to 4-hour experimental session. Said compounds are administered to the animals 30, 90, 210 minutes prior to the experimental session, and block the learned conditioned avoidance behavior, manifested by a decrease in avoidance responding with a marked increase in shocks taken by the animal. Both the avoidance responses and failures (shocks received) are recorded separately for evaluation.

For assay [2] the test system is unchanged. The assay is described as follows: conditioned avoidance (lever press to avoid electric foot shock) in monkeys. Particulars: Primates, oral, read-out: oral dose that disrupts avoidance behavior, e.g. decreases avoidance responses. It is filed as in vivo, squirrel monkeys. As to the method:
as §1

Bounds are passed on as bounds.

On to `CN1CCN(C2=Nc3ccccc3Cc3nccn32)CC1` [example 1, 5-(4-methyl-1-piperazinyl)-11H-imidazo[1,2-c][1,3]benzodiazepine], for which the minimal effective dose in assay [1] and in assay [2] was ≤ 50 mg/kg each time.
